For the assay, the target named is α7 nAChR subtype (Rattus norvegicus, UniProt Q05941). Format: binding. The settings on record: read-out: KD of radioligand.
Chain of α7 nAChR subtype (Q05941 23-502 limits assumed): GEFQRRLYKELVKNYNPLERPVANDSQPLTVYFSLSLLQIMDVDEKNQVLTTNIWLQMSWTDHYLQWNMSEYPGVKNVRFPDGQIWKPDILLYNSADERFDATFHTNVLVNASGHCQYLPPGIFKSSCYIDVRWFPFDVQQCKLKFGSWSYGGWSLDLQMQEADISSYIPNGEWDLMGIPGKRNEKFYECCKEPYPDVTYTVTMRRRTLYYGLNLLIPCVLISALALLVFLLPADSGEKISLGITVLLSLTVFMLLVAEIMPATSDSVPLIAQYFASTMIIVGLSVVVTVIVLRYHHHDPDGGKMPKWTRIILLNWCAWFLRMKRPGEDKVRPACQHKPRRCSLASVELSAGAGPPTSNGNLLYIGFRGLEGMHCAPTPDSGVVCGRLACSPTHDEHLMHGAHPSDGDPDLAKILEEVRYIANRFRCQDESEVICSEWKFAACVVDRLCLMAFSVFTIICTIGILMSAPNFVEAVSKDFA

As to [^125I]-α-Bungarotoxin [[^125I]-α-BTX], the Kd amounted to 1.67 nM.

The record behind these values is US7417050B2 (priority 2002, dated 2008).
